# Measured values as given in the supplement of paper PMC10307832.
# What was measured:
# Experiment in all cases: relative viability (nuclei count vs DMSO), 5 days (fraction); higher = more cells survive
# NCI-H1437 = test system: NCI-H1437
# In short: (§1)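 Medians of duplicate plates are given as relative viability. That measure is the nuclei count in treated wells divided by the count in vehicle wells. Counts were taken on 4× images of lung cancer cell lines in 1536-well plates, 5 days after pin-tool dosing the day after seeding with one drug alone or a fixed anchor-drug dose plus five library-drug doses (not always all listed) in √10 steps.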
# CAL-12T = test system: CAL-12T
# In short: as §1
# NCI-H460 = test system: NCI-H460
# In short: as §1
# NCI-H1755 = test system: NCI-H1755
# In short: as §1
# EMC-BAC-2 = test system: EMC-BAC-2
# In short: as §1
# LCLC-103H = test system: LCLC-103H
# In short: as §1
# HCC-366 = test system: HCC-366
# In short: as §1
# NCI-H727 = test system: NCI-H727
# In short: as §1
# NCI-H2009 = test system: NCI-H2009
# In short: as §1
# NCI-H2228 = test system: NCI-H2228
# In short: as §1
# SK-LU-1 = test system: SK-LU-1
# In short: as §1
# NCI-H1915 = test system: NCI-H1915
# In short: as §1
# NCI-H23 = test system: NCI-H23
# In short: as §1
# HOP-62 = test system: HOP-62
# In short: as §1
# NCI-H1355 = test system: NCI-H1355
# In short: as §1
# SW 1573 = test system: SW 1573
# In short: as §1
# HCC-827 = test system: HCC-827
# In short: as §1
# NCI-H1975 = test system: NCI-H1975
# In short: as §1
# A-427 = test system: A-427
# In short: as §1
# NCI-H1792 = test system: NCI-H1792
# In short: as §1
# COR-L 105 = test system: COR-L 105
# In short: as §1
# HARA = test system: HARA
# In short: as §1
compound,measurement,setting,value
Clc1ccc(Nc2nnc(Cc3ccncc3)c3ccccc23)cc1 [Vatalanib] + C[C@@H](Oc1cc(-c2cnn(C3CCNCC3)c2)cnc1N)c1c(Cl)ccc(F)c1Cl [Crizotinib] (partner 1 µM),relative viability,NCI-H1437; first compound 0.04 µM,0.978
same,relative viability,NCI-H1437; first compound 0.1265 µM,0.934
same,relative viability,NCI-H1437; first compound 0.4 µM,1.02
same,relative viability,NCI-H1437; first compound 1.265 µM,0.886
same,relative viability,NCI-H1437; first compound 4 µM,0.958
same,relative viability,CAL-12T; first compound 0.04 µM,0.651
same,relative viability,CAL-12T; first compound 0.1265 µM,0.523
same,relative viability,CAL-12T; first compound 0.4 µM,0.686
same,relative viability,CAL-12T; first compound 1.265 µM,0.446
same,relative viability,CAL-12T; first compound 4 µM,0.746
same,relative viability,NCI-H460; first compound 0.04 µM,0.878
same,relative viability,NCI-H460; first compound 0.1265 µM,0.827
same,relative viability,NCI-H460; first compound 0.4 µM,1.21
same,relative viability,NCI-H460; first compound 1.265 µM,0.748
same,relative viability,NCI-H460; first compound 4 µM,0.856
same,relative viability,NCI-H1755; first compound 0.04 µM,0.886
same,relative viability,NCI-H1755; first compound 0.1265 µM,0.821
same,relative viability,NCI-H1755; first compound 0.4 µM,0.942
same,relative viability,NCI-H1755; first compound 1.265 µM,0.802
same,relative viability,NCI-H1755; first compound 4 µM,0.773
same,relative viability,EMC-BAC-2; first compound 0.04 µM,0.703
same,relative viability,EMC-BAC-2; first compound 0.1265 µM,0.76
same,relative viability,EMC-BAC-2; first compound 0.4 µM,0.75
same,relative viability,EMC-BAC-2; first compound 1.265 µM,0.752
same,relative viability,EMC-BAC-2; first compound 4 µM,0.742
same,relative viability,LCLC-103H; first compound 0.04 µM,1.04
same,relative viability,LCLC-103H; first compound 0.1265 µM,1.04
same,relative viability,LCLC-103H; first compound 0.4 µM,1.15
same,relative viability,LCLC-103H; first compound 1.265 µM,0.999
same,relative viability,LCLC-103H; first compound 4 µM,1.11
same,relative viability,HCC-366; first compound 0.04 µM,0.545
same,relative viability,HCC-366; first compound 0.1265 µM,0.383
same,relative viability,HCC-366; first compound 0.4 µM,0.592
same,relative viability,HCC-366; first compound 1.265 µM,0.487
same,relative viability,HCC-366; first compound 4 µM,0.35
same,relative viability,NCI-H727; first compound 0.04 µM,0.689
same,relative viability,NCI-H727; first compound 0.1265 µM,0.603
same,relative viability,NCI-H727; first compound 0.4 µM,0.992
same,relative viability,NCI-H727; first compound 1.265 µM,0.693
same,relative viability,NCI-H727; first compound 4 µM,0.654
same,relative viability,NCI-H2009; first compound 0.04 µM,0.987
same,relative viability,NCI-H2009; first compound 0.1265 µM,0.478
same,relative viability,NCI-H2009; first compound 0.4 µM,1.12
same,relative viability,NCI-H2009; first compound 1.265 µM,1
same,relative viability,NCI-H2009; first compound 4 µM,0.977
same,relative viability,NCI-H2228; first compound 0.04 µM,0.332
same,relative viability,NCI-H2228; first compound 0.1265 µM,0.496
same,relative viability,NCI-H2228; first compound 0.4 µM,0.499
same,relative viability,NCI-H2228; first compound 1.265 µM,0.432
same,relative viability,NCI-H2228; first compound 4 µM,0.496
same,relative viability,SK-LU-1; first compound 0.04 µM,0.923
same,relative viability,SK-LU-1; first compound 0.1265 µM,0.898
same,relative viability,SK-LU-1; first compound 0.4 µM,1.02
same,relative viability,SK-LU-1; first compound 1.265 µM,1.06
same,relative viability,SK-LU-1; first compound 4 µM,0.696
same,relative viability,NCI-H1915; first compound 0.04 µM,0.939
same,relative viability,NCI-H1915; first compound 0.1265 µM,0.869
same,relative viability,NCI-H1915; first compound 0.4 µM,0.885
same,relative viability,NCI-H1915; first compound 1.265 µM,0.92
same,relative viability,NCI-H1915; first compound 4 µM,0.918
same,relative viability,NCI-H23; first compound 0.04 µM,0.505
same,relative viability,NCI-H23; first compound 0.1265 µM,0.49
same,relative viability,NCI-H23; first compound 0.4 µM,0.491
same,relative viability,NCI-H23; first compound 1.265 µM,0.622
same,relative viability,NCI-H23; first compound 4 µM,0.564
same,relative viability,HOP-62; first compound 0.04 µM,0.921
same,relative viability,HOP-62; first compound 0.4 µM,0.948
same,relative viability,HOP-62; first compound 1.265 µM,0.911
same,relative viability,HOP-62; first compound 4 µM,0.904
same,relative viability,NCI-H1355; first compound 0.04 µM,1.05
same,relative viability,NCI-H1355; first compound 0.1265 µM,1.08
same,relative viability,NCI-H1355; first compound 0.4 µM,1.13
same,relative viability,NCI-H1355; first compound 1.265 µM,0.886
same,relative viability,NCI-H1355; first compound 4 µM,0.953
same,relative viability,SW 1573; first compound 0.04 µM,0.918
same,relative viability,SW 1573; first compound 0.1265 µM,0.721
same,relative viability,SW 1573; first compound 0.4 µM,0.942
same,relative viability,SW 1573; first compound 1.265 µM,0.627
same,relative viability,SW 1573; first compound 4 µM,0.817
same,relative viability,HCC-827; first compound 0.04 µM,0.845
same,relative viability,HCC-827; first compound 0.1265 µM,0.936
same,relative viability,HCC-827; first compound 0.4 µM,0.943
same,relative viability,HCC-827; first compound 1.265 µM,0.894
same,relative viability,HCC-827; first compound 4 µM,0.853
same,relative viability,NCI-H1975; first compound 0.04 µM,0.946
same,relative viability,NCI-H1975; first compound 0.1265 µM,0.856
same,relative viability,NCI-H1975; first compound 0.4 µM,0.959
same,relative viability,NCI-H1975; first compound 1.265 µM,0.845
same,relative viability,NCI-H1975; first compound 4 µM,0.821
same,relative viability,A-427; first compound 0.04 µM,1.03
same,relative viability,A-427; first compound 0.1265 µM,0.891
same,relative viability,A-427; first compound 0.4 µM,0.994
same,relative viability,A-427; first compound 1.265 µM,0.879
same,relative viability,A-427; first compound 4 µM,0.948
same,relative viability,NCI-H1792; first compound 0.04 µM,0.945
same,relative viability,NCI-H1792; first compound 0.1265 µM,0.972
same,relative viability,NCI-H1792; first compound 0.4 µM,0.921
same,relative viability,NCI-H1792; first compound 1.265 µM,0.912
same,relative viability,NCI-H1792; first compound 4 µM,0.98
same,relative viability,COR-L 105; first compound 0.04 µM,0.818
same,relative viability,COR-L 105; first compound 0.1265 µM,0.677
same,relative viability,COR-L 105; first compound 0.4 µM,0.938
same,relative viability,COR-L 105; first compound 1.265 µM,0.73
same,relative viability,COR-L 105; first compound 4 µM,0.827
same,relative viability,HARA; first compound 0.04 µM,0.99
same,relative viability,HARA; first compound 0.1265 µM,0.956
same,relative viability,HARA; first compound 0.4 µM,1.01
same,relative viability,HARA; first compound 1.265 µM,1.07
same,relative viability,HARA; first compound 4 µM,0.998
